Experimental data reported in article PMC11167047 (Cell Death Discovery, 2024).

Tests used:
Test in all cases: kinome screen (33PanQinase)
Type in all cases: biochemical
WNK2 = molecular target: T1, WNK2 (Homo sapiens, UniProt Q9Y3S1)
T1 construct: purchased Reaction Biology Europe GmbH (formerly ProQinase)
Method: (§1) The Kinome Screening was performed by Reaction Biology Europe GmbH (http://reactionbiology.com; Freiburg i. Br., Germany).

FER = molecular target: T2, FER (Homo sapiens, UniProt P16591)
T2 construct: purchased Reaction Biology Europe GmbH (formerly ProQinase)
Method: as §1

S6Kbeta = molecular target: T3, S6Kbeta (Homo sapiens, UniProt Q9UBS0)
T3 construct: purchased Reaction Biology Europe GmbH (formerly ProQinase)
Method: as §1

FRK = molecular target: T4, FRK (Homo sapiens, UniProt P42685)
T4 construct: purchased Reaction Biology Europe GmbH (formerly ProQinase)
Method: as §1

RET = molecular target: T5, RET (Homo sapiens, UniProt P07949)
T5 construct: purchased Reaction Biology Europe GmbH (formerly ProQinase)
Method: as §1

AMPKα1 = molecular target: T6, AMPKα1 (Homo sapiens, UniProt Q13131)
T6 construct: purchased Reaction Biology Europe GmbH (formerly ProQinase)
T6 sequence (Q13131 10-559 limits assumed): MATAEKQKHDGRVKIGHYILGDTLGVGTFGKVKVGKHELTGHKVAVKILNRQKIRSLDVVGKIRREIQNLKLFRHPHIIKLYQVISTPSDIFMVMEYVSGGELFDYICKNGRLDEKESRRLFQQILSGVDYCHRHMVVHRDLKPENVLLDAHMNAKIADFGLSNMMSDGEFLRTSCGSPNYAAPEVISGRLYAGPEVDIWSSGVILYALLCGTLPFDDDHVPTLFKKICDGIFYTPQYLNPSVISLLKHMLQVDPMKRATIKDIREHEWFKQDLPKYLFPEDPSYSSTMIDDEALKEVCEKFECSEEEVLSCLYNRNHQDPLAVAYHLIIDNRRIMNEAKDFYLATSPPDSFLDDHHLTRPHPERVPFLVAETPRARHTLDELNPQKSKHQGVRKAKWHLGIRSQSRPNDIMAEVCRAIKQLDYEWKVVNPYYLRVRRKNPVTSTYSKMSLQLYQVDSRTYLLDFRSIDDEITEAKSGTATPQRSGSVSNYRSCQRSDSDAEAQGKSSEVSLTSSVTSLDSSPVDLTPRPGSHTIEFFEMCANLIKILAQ
Method: as §1

PHKG2 = molecular target: T7, PHKG2 (Homo sapiens, UniProt P15735)
T7 construct: purchased Reaction Biology Europe GmbH (formerly ProQinase)
T7 sequence (P15735 1-406): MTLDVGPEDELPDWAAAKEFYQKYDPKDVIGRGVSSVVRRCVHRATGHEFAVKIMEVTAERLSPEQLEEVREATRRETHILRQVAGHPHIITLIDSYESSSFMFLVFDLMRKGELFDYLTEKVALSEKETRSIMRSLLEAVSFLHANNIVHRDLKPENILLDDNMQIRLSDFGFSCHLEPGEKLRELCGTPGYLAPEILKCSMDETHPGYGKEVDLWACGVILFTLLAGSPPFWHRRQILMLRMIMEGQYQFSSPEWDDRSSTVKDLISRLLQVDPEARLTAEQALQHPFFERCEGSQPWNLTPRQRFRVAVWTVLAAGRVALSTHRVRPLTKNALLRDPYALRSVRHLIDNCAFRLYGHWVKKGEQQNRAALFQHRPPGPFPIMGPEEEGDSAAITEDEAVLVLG
Method: as §1

PIM2 = molecular target: T8, PIM2 (Homo sapiens, UniProt Q9P1W9)
T8 construct: purchased Reaction Biology Europe GmbH (formerly ProQinase)
T8 sequence (Q9P1W9 whole entry): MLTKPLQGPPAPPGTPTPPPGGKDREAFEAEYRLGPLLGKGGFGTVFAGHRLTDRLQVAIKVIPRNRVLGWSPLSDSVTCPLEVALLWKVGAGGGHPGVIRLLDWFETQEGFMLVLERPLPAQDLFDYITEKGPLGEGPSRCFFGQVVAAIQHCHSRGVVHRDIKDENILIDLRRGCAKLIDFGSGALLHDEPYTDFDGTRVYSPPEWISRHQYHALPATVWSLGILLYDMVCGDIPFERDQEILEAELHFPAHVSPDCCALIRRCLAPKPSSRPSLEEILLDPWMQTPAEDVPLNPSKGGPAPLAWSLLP
Method: as §1

PKCα = molecular target: T9, PKCα (Homo sapiens, UniProt P17252)
T9 construct: purchased Reaction Biology Europe GmbH (formerly ProQinase)
Method: as §1

SRMS = molecular target: T10, SRMS (Homo sapiens, UniProt Q9H3Y6)
T10 construct: purchased Reaction Biology Europe GmbH (formerly ProQinase)
Method: as §1

SNARK = molecular target: T11, SNARK (Homo sapiens, UniProt Q9H093)
T11 construct: purchased Reaction Biology Europe GmbH (formerly ProQinase)
T11 sequence (Q9H093 1-628): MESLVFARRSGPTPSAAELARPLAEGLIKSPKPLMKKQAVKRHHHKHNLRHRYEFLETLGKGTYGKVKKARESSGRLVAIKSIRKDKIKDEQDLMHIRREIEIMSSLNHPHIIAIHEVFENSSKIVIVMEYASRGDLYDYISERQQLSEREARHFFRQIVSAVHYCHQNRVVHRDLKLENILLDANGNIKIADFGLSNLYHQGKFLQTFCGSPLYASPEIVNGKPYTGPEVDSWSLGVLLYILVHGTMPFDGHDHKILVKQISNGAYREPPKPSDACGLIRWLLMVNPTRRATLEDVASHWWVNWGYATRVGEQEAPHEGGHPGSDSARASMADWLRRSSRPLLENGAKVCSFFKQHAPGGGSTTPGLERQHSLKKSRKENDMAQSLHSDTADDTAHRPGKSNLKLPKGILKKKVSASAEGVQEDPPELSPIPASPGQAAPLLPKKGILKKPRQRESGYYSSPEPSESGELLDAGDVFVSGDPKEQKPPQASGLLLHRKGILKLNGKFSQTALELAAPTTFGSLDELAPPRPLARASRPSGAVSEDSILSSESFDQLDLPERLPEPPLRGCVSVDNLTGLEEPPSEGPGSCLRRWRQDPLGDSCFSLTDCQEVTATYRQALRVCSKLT
Method: as §1

CDK6/CycD3 = molecular target: T12, CDK6/CycD3 (Homo sapiens, UniProt Q00534)
T12 construct: purchased Reaction Biology Europe GmbH (formerly ProQinase)
Method: as §1

DYRK3 = molecular target: T13, DYRK3 (Homo sapiens, UniProt O43781)
T13 construct: purchased Reaction Biology Europe GmbH (formerly ProQinase)
T13 sequence (O43781 1-588): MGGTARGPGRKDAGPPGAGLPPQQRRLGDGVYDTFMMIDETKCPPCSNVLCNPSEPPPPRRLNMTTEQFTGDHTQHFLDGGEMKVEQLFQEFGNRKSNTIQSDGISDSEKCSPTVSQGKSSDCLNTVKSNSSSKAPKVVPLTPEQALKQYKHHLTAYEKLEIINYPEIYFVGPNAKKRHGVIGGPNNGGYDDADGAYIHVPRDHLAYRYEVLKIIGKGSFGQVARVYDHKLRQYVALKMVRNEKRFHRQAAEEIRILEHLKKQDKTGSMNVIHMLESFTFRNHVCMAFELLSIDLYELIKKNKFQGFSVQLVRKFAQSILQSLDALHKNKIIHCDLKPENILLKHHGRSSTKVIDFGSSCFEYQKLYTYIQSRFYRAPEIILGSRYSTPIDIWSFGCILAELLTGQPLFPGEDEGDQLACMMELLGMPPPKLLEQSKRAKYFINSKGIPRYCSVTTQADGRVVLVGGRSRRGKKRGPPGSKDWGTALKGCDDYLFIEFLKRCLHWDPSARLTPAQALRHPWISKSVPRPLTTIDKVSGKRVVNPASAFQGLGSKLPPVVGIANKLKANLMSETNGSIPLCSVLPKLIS
Method: as §1

JAK2 = molecular target: T14, JAK2 (Homo sapiens, UniProt O60674)
T14 construct: purchased Reaction Biology Europe GmbH (formerly ProQinase)
Method: as §1

EPHA4 = molecular target: T15, EPHA4 (Homo sapiens, UniProt P54764)
T15 construct: purchased Reaction Biology Europe GmbH (formerly ProQinase)
T15 sequence (P54764 20-986): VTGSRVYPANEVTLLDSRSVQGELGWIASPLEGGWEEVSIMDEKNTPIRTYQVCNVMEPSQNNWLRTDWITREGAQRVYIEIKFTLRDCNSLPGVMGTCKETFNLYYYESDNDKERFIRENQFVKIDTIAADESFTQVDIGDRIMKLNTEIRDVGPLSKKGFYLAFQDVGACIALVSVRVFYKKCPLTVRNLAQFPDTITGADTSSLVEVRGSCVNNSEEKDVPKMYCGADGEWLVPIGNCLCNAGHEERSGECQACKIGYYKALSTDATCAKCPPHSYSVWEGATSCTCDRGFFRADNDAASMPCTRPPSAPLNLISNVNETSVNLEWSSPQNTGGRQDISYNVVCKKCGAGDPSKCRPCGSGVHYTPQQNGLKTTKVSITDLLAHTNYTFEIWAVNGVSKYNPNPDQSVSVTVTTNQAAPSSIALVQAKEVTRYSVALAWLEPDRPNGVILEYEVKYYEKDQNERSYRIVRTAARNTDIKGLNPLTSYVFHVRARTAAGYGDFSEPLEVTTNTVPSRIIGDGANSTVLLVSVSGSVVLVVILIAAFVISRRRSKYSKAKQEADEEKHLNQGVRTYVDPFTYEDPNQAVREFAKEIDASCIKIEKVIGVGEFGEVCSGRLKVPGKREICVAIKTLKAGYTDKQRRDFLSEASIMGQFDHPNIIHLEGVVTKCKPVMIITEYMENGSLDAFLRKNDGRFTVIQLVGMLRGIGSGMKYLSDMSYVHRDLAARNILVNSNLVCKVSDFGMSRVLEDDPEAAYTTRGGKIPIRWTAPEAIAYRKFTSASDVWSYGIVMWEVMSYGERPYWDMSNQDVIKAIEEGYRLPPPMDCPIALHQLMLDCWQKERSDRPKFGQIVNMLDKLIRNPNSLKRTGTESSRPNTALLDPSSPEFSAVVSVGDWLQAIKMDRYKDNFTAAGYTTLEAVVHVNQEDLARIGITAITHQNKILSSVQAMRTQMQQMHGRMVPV
Method: as §1

PRK2 = molecular target: T16, PRK2 (Homo sapiens, UniProt Q16513)
T16 construct: purchased Reaction Biology Europe GmbH (formerly ProQinase)
Method: as §1

p38α = molecular target: T17, p38α (Homo sapiens, UniProt Q16539)
T17 construct: purchased Reaction Biology Europe GmbH (formerly ProQinase)
Method: as §1

T1 sequence (Q9Y3S1 whole entry): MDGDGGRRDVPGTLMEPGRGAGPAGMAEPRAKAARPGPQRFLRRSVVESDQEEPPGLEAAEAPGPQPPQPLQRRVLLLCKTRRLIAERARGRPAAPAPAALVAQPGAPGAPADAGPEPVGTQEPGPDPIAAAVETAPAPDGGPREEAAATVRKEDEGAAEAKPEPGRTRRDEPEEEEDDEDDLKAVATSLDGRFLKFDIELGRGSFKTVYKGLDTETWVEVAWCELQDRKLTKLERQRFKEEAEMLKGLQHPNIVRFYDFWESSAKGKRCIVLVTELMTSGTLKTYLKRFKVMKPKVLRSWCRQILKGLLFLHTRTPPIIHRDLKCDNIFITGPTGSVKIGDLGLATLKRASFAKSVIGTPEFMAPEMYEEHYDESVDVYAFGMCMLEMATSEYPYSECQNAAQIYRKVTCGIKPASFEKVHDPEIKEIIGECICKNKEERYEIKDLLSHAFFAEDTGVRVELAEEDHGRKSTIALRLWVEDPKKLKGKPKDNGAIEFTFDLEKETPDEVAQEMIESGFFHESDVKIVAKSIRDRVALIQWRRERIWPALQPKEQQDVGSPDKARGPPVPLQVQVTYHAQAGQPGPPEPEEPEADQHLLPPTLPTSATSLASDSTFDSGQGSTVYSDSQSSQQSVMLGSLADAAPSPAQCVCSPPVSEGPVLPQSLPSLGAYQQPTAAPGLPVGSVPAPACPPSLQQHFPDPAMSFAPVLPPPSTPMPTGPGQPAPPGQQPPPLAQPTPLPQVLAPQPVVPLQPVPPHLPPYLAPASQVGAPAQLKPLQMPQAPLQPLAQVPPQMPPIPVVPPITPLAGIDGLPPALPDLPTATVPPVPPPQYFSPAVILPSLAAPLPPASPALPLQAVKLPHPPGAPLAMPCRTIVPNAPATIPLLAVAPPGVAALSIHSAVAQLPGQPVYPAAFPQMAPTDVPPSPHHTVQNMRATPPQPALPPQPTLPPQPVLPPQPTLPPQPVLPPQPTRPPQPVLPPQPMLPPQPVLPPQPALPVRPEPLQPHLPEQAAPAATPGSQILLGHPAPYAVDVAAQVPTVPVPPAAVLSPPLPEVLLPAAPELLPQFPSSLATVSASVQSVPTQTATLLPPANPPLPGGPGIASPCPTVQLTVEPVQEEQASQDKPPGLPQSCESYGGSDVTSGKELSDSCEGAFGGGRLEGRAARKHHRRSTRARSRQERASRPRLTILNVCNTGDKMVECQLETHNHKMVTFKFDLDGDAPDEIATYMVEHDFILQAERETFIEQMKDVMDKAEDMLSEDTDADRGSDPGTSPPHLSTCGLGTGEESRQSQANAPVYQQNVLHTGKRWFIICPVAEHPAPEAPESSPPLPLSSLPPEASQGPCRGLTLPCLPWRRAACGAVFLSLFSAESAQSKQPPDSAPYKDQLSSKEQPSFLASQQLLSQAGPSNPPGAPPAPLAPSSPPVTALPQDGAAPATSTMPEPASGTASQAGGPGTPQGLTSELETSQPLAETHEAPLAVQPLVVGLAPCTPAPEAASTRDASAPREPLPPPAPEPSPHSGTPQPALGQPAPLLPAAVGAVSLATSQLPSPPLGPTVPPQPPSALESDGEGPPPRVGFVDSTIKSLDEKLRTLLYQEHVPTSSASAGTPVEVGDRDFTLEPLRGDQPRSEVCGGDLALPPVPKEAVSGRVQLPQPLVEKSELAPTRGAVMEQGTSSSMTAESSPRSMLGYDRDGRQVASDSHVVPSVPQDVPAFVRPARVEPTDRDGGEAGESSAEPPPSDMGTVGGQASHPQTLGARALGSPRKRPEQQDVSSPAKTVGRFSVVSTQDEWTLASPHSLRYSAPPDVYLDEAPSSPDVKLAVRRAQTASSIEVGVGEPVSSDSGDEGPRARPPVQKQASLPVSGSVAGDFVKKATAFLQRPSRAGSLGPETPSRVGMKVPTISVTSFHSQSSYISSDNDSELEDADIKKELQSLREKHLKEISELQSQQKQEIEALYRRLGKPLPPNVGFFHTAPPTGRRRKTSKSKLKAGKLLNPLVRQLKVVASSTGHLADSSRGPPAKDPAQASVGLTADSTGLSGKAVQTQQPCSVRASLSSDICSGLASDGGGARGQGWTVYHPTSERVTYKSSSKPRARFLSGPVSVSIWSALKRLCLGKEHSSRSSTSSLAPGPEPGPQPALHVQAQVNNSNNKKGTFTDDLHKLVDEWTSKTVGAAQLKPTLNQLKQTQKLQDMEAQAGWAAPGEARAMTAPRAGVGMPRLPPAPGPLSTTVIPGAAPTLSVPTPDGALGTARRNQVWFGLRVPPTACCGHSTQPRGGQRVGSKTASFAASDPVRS

Compound: c1ccc(CNc2cc(-c3c[nH]c4ncccc34)ccn2)cc1 [meriolin 36]
- residual kinase activity (WNK2; 0.3 µM): 86 % of control
- residual kinase activity (WNK2; 3 µM): 74 % of control
- residual kinase activity (FER; 0.3 µM): 66 % of control
- residual kinase activity (FER; 3 µM): 22 % of control
- residual kinase activity (S6Kbeta; 0.3 µM): 87 % of control
- residual kinase activity (S6Kbeta; 3 µM): 67 % of control
- residual kinase activity (FRK; 0.3 µM): 54 % of control
- residual kinase activity (FRK; 3 µM): 16 % of control
- residual kinase activity (RET; 0.3 µM): 61 % of control
- residual kinase activity (RET; 3 µM): 12 % of control
- residual kinase activity (AMPKα1; 0.3 µM): 57 % of control
- residual kinase activity (AMPKα1; 3 µM): 9 % of control
- residual kinase activity (PHKG2; 0.3 µM): 52 % of control
- residual kinase activity (PHKG2; 3 µM): 23 % of control
- residual kinase activity (PIM2; 0.3 µM): 119 % of control
- residual kinase activity (PIM2; 3 µM): 90 % of control
- residual kinase activity (PKCα; 0.3 µM): 49 % of control
- residual kinase activity (PKCα; 3 µM): 11 % of control
- residual kinase activity (SRMS; 0.3 µM): 93 % of control
- residual kinase activity (SRMS; 3 µM): 73 % of control
- residual kinase activity (SNARK; 0.3 µM): 30 % of control
- residual kinase activity (SNARK; 3 µM): 5 % of control
- residual kinase activity (CDK6/CycD3; 0.3 µM): 76 % of control
- residual kinase activity (CDK6/CycD3; 3 µM): 26 % of control
- residual kinase activity (DYRK3; 0.3 µM): 59 % of control
- residual kinase activity (DYRK3; 3 µM): 14 % of control
- residual kinase activity (JAK2; 0.3 µM): 40 % of control
- residual kinase activity (JAK2; 3 µM): 8 % of control
- residual kinase activity (EPHA4; 0.3 µM): 93 % of control
- residual kinase activity (EPHA4; 3 µM): 72 % of control
- residual kinase activity (PRK2; 0.3 µM): 8 % of control
- residual kinase activity (PRK2; 3 µM): 0 % of control
- residual kinase activity (p38α; 0.3 µM): 78 % of control
- residual kinase activity (p38α; 3 µM): 80 % of control

Compound: COc1ccnc2[nH]cc(-c3cc(N)nc(N)c3)c12 [meriolin 16]
- residual kinase activity (WNK2; 0.03 µM): 99 % of control
- residual kinase activity (WNK2; 0.3 µM): 86 % of control
- residual kinase activity (FER; 0.03 µM): 63 % of control
- residual kinase activity (FER; 0.3 µM): 58 % of control
- residual kinase activity (S6Kbeta; 0.03 µM): 89 % of control
- residual kinase activity (S6Kbeta; 0.3 µM): 103 % of control
- residual kinase activity (FRK; 0.03 µM): 103 % of control
- residual kinase activity (FRK; 0.3 µM): 99 % of control
- residual kinase activity (RET; 0.03 µM): 106 % of control
- residual kinase activity (RET; 0.3 µM): 100 % of control
- residual kinase activity (AMPKα1; 0.03 µM): 108 % of control
- residual kinase activity (AMPKα1; 0.3 µM): 78 % of control
- residual kinase activity (PHKG2; 0.03 µM): 74 % of control
- residual kinase activity (PHKG2; 0.3 µM): 52 % of control
- residual kinase activity (PIM2; 0.03 µM): 115 % of control
- residual kinase activity (PIM2; 0.3 µM): 83 % of control
- residual kinase activity (PKCα; 0.03 µM): 95 % of control
- residual kinase activity (PKCα; 0.3 µM): 80 % of control
- residual kinase activity (SRMS; 0.03 µM): 101 % of control
- residual kinase activity (SRMS; 0.3 µM): 93 % of control
- residual kinase activity (SNARK; 0.03 µM): 99 % of control
- residual kinase activity (SNARK; 0.3 µM): 64 % of control
- residual kinase activity (CDK6/CycD3; 0.03 µM): 88 % of control
- residual kinase activity (CDK6/CycD3; 0.3 µM): 98 % of control
- residual kinase activity (DYRK3; 0.03 µM): 27 % of control
- residual kinase activity (DYRK3; 0.3 µM): 2 % of control
- residual kinase activity (JAK2; 0.03 µM): 102 % of control
- residual kinase activity (JAK2; 0.3 µM): 80 % of control
- residual kinase activity (EPHA4; 0.03 µM): 105 % of control
- residual kinase activity (EPHA4; 0.3 µM): 85 % of control
- residual kinase activity (PRK2; 0.03 µM): 90 % of control
- residual kinase activity (PRK2; 0.3 µM): 42 % of control
- residual kinase activity (p38α; 0.03 µM): 94 % of control
- residual kinase activity (p38α; 0.3 µM): 74 % of control
